# Data reported in patent publication US8969515B2, “Pharmaceutical composition for treating hyperproliferative diseases” (OOO “MetaMax”, priority 2011, dated 2015).
# Experiments:
# [1] = system: cell lines HEK293 and A549; assay: Cell cycle arrest by chemotherapeutics alone, preliminary experiments; type: cell-based, human; conditions: 100 nMol
# Text: This concentration for all drugs was 100 nMol.
# A549 cells xenograft = assay: Anti-tumor activity in vivo, local injection, A549 xenograft; conditions: 24 days
# Text: 10 mice constituted the 1st treatment group. […] The experiment lasted 24 days.
# In the experimental groups, we observed a reduced tumor growth and on day 6 after the begin of administration of the peptide there could be observed a significant reduction in tumor volume in experimental groups compared with the control ones (FIG. 32). The experiment lasted 24 days. During this time, we performed 10 injections of the chimeric peptide in the experimental groups. In the control group, on day 24 of the experiment, the average tumor volume in mice was 95.24 mm^3, one mouse died. In the first experimental group (administered dose of peptide—0.1 mg) average tumor volume was 39.29 mm^3, one mouse died.
# HCT-116 cells xenograft = assay: Anti-tumor activity in vivo, local injection, HCT-116 xenograft; design: species or system mice; conditions: 0.1 mg group, 28 days
# Text: The tumor nodule of HCT-116 cells is characterized by a large in size and the presence of ulceration. In the control group, on day 28 of the experiment the average tumor volume reached 679 mm^3, 3 mice died during the experiment. In the test group, a lower rate of tumor growth was observed (FIG. 32), on day 28 of the experiment the average tumor volume was 225.4 mm^3, the number of dead animals in the experimental group was 2.
# [2] = system: HEK293 cell line synchronized in G0/G1 phase; assay: Cell cycle phase analysis by flow cytofluorometry after sync block removal; type: cell-based, human; conditions: for antiproliferative effect on cell cycle: peptide added at sync block removal
# Experimental: (§1) In experiments with cell lines we evaluated the distribution of cells according to the phases of the cell cycle and calculated the proliferation index. For analysis we used software FloMax 2.0 (built-in option of flow cytofluorimenter) and software Modfit LT 3.0 (FIGS. 7 and 8). We also carried out the determination of the proportion of cells entered the apoptosis based on size of “pre-G1-hypodiploid” peak on DNA histogram (FIG. 8 (B)). Experiments were performed both on cell lines synchronized in phase G1/S, and on non-synchronized cell lines Raji, Jurkatt, A549, HEK 293, MCF-7.
# The study of the effects of peptides was conducted on transplantable cell cultures. In order to study alterations in the expression of specific intracellular regulators and in order to improve visualization of the experiments, the cells were pre-synchronized.
# At the first stage of the evaluation of the obtained results, we investigated the effect of internalizable chimeric peptides with different active centers—p16INK4a and p21/CIP/KIP. The chimeric peptide to be studied was added at the moment of the sync block removal. Cell cycle analysis was performed every 2 hours for 24 hours after removal of the block.
# We investigated chimeric peptides having p16INK4a active center and having different types of vectors, Tat and pAntp. […] As is seen from FIG. 18, plots of dependencies of the number of cells in the cell cycle phases are similar in appearance for the two types of peptide vectors carrying p16 fragment. In the control sample—synchronized cell culture without the addition of the study peptide, the number of cells in G0/G1-phase starts to decline as early as 2 hours after removal of the synch block, and 10 hours later we recorded the lowest number of cells in G0/G1-phase. S-phase in the control samples starts to increase 4-6 hours after sync block removal and reaches a maximum after 12 hours.
# cyclin B = assay: Cyclin B mRNA expression by quantitative RT-PCR; type: cell-based, human
# Experimental: FIG. 29. Study of cyclin B synthesis in HEK293 cell culture by adding peptide Tat_p16 (30 µMol). […] X-axis—incubation time (hours), Y-axis—abstract units.
# It is known that the phosphorylation of pRb is an initiating step for activation of expression of cyclins A and B and for transition of cells from G1 into S phase of the cell cycle. Quantitative PCR method was used to study mRNA expression level of cyclin B when exposed to Tat_p16 peptide. For this purpose during experiment on synchronized culture with adding Tat_p16 chimeric peptide at a concentration of 40 µmol, we performed a parallel selection of cells from samples for RNA extraction, whereas a part of the cells served the determination of the cell cycle phases. Further processing of the material involved RNA isolation and quantitative PCR reaction setting (RT-PCR) carried out according to the protocol.
# HEK293 cell line = assay: Apoptosis level (hypodiploid peak) in HEK293 culture; type: cell-based, human; conditions: synchronized culture
# Experimental: FIG. 16. Mean apoptosis values for synchronized HEK293 cell culture in a series of experiments using internalized peptides with active centers p21 and p16. Incubation time with peptide is 24 hours. Concentration of peptides is 40 µMol. Y-axis—percentage of apoptotic particles.
# FIG. 20. Mean apoptosis values in synchronized culture of HEK293 after addition of chimeric peptides Tat_p16 and pAntp p16. […] The peptides were added at the moment of synchronization block removal. The effect was evaluated after 24 hours.
# FIG. 21. Change in the level of apoptosis in the cell culture depending on the incubation time with peptides Tat_p16 and pAntp_p16 for synchronized 293 cell line (A) and synchronized A549 cell line (B).
# as §1
# [3] = system: HEK293 cell line, non-synchronized and synchronized; assay: Effect of pAntp chimeric peptide versions on cell cycle, HEK293; type: cell-based, human; conditions: 40 μM; for changes of the cell cycle phases: synchronized and nonsynchronized cells
# Experimental: FIG. 22. Effect of chimeric peptide pAntp containing a p16INK4a fragment, on the cell cycle. A—non-synchronized cell line HEK293, B—cell line HEK293 synchronized in S-phase. Peptide concentration is 40 µM. The peptides are pAntp and three further peptides 1-p16, 2-p16, and 3-p16, wherein peptides 1-p16 and 2-p16 are synthetic peptides differing by the location of the 20 amino acids fragment of p16 relative to pAntp; and peptide 3-p16 is a genetically engineered peptide comprising a 50 amino acids insert of protein Antp.
# We used three versions of the chimeric peptide containing p16INK4a active center and pAntp vector. These chimeric peptides differ by location of the active center relative to N-C termini of the molecule and the presence of an insertion of 44 amino acids ([…], SEQ ID NO: 9) for peptide 3 produced by genetic engineering method (Table 1).
# In the study of the properties of these peptides we also investigated synchronized and nonsynchronized cell cultures. In a synchronized culture, the peptide was added at the time of sync block removal and in the nonsynchronized at a monolayer density (for adhesion cultures) of ~50%.
# [4] = system: cell lines A549, HEK293 and MCF-7; assay: Apoptosis level with pAntp chimeric peptide versions; type: cell-based, human; conditions: 40 μM, lines A549 and HEK 293, non-synchronized and synchronized
# Experimental: FIG. 24. Effect of chimeric peptides containing a p16INK4a fragment on apoptosis level in non-synchronized and synchronized cell line A549. Peptide concentration is 40 µM. Y-axis—percentage of apoptotic bodies.
# FIG. 25. Effect of chimeric peptides containing a p16INK4a fragment on apoptosis level in non-synchronized and synchronized HEK293 cell line. Peptide concentration is 40 µM. Y-axis—percentage of apoptotic bodies.
# FIG. 26. Comparisons of cytotoxic effect of chimeric peptides pAntpp16 (1, 2) on HEK293 cell culture.
# In the next phase of work, we assessed the dependence of the cytotoxic effect exerted by the chimeric test peptides with the peptide vector pAntp. An experiment to determine the level of apoptosis was carried out on the cell lines A549 (human, lung carcinoma), HEK293 (human, embryonic kidney) and MCF-7 (human, mammary adenocarcinoma). Cells were cultured by standard techniques in DMEM medium containing 10% of FSB. A part of the cells was previously synchronized using the method of double thymidine block and synchronization method with the depleted media (see “Experiment. Parts”). The chimeric test peptides pAntp-p16 (1 and 2) were added to the culture medium. As a negative control we used cells treated with the peptide pAntp_zam (FIGS. 24, 25).
# [5] = after sync block removal, 40 μM
compound,measurement,setting,value
O=c1[nH]cc(F)c(=O)[nH]1 [5-fluorouracil],cell cycle arrest phase,[1],G0/G1-phase arrest
COc1cc([C@@H]2c3cc4c(cc3[C@@H](O[C@@H]3O[C@@H]5CO[C@@H](C)O[C@H]5[C@H](O)[C@H]3O)[C@H]3COC(=O)[C@H]23)OCO4)cc(OC)c1O [Etoposide],cell cycle arrest phase,[1],S-phase arrest
CC(=O)O[C@H]1C(=O)[C@@]2(C)[C@H]([C@H](OC(=O)c3ccccc3)[C@]3(O)C[C@H](OC(=O)[C@H](O)[C@@H](NC(=O)c4ccccc4)c4ccccc4)C(C)=C1C3(C)C)[C@]1(OC(C)=O)CO[C@@H]1C[C@@H]2O [Taxol],cell cycle arrest phase,[1],G2/M-phase arrest
CC[C@H](C)[C@H](NC(=O)[C@H](CCCCN)NC(=O)[C@@H](NC(=O)[C@H](CCC(N)=O)NC(=O)[C@H](CCCNC(=N)N)NC(=O)[C@H](CO)NC(=O)[C@H](CCCNC(=N)N)NC(=O)[C@H](C)NC(=O)CNC(=O)[C@H](C)NC(=O)[C@H](CCCNC(=N)N)NC(=O)[C@H](Cc1c[nH]cn1)NC(=O)[C@H](CC(C)C)NC(=O)[C@@H](NC(=O)[C@@H](NC(=O)[C@H](CC(C)C)NC(=O)[C@@H](NC(=O)[C@H](CC(=O)O)NC(=O)[C@H](CC(C)C)NC(=O)[C@H](Cc1ccccc1)NC(=O)CNC(=O)[C@H](CCC(=O)O)NC(=O)[C@H](CCCNC(=N)N)NC(=O)[C@H](C)NC(=O)[C@H](C)NC(=O)[C@@H](N)CC(=O)O)[C@@H](C)O)C(C)C)C(C)C)[C@@H](C)CC)C(=O)N[C@@H](Cc1c[nH]c2ccccc12)C(=O)N[C@@H](Cc1ccccc1)C(=O)N[C@@H](CCC(N)=O)C(=O)N[C@@H](CC(N)=O)C(=O)N[C@@H](CCCNC(=N)N)C(=O)N[C@@H](CCCNC(=N)N)C(=O)N[C@@H](CCSC)C(=O)N[C@@H](CCCCN)C(=O)N[C@@H](Cc1c[nH]c2ccccc12)C(=O)N[C@@H](CCCCN)C(=O)N[C@@H](CCCCN)C(=O)O [pAntp_p16(2)],mice died,A549 cells xenograft; 0.1 mg group,one
same,mice died,A549 cells xenograft; 0.2 mg group,no animals died
same,number of dead animals,HCT-116 cells xenograft,2
"DAAREGFLDTLVVLHRAGARS YGRKKRRQRRRG (DAAREGFLDTLVVLHRAGARSYGRKKRRQRRRG; Tat_p16, chimeric peptide; listed as Homo Sapiens)",time at which G0/G1 phase starts to decrease,[2]; [5],simultaneously with G0/G1-phase in control sample
same,time at which S-phase begins to increase,[2]; [5],12 h
same,time of maximum S-phase,[2]; [5],14 h
same,time of maximum difference of cell cycle phases between control and test samples,[2]; [5],about 12 hours
same,time of maximum difference of cell cycle phases between control and test samples,"[2]; after sync block removal, 40 μM, listed as Tatp16",12 h
same,antiproliferative effect on cell cycle,[2]; 40 μM,arrest of G1-S transition
same,time at which increase in G2-phase occurs,[2]; same experiment as cyclin B RT-PCR,16 h
same,effect on expression of cyclin B,"cyclin B; HEK293 synchronized in G0/G1, Tat_p16 40 μmol",inhibits the expression of B cyclin
same,incubation time after which cyclin B expression level increases,cyclin B; control maximum at 12 hours,16 h
YGRKKRRQRRRGPVKRRLDL [Tat_p21],time of maximum difference of cell cycle phases between control and test samples,[2]; [5],10 to 12 h
same,time at which G2/M-phase level reaches a maximum value,[2]; average,18 to 20 h
same,antiproliferative effect on cell cycle,[2]; 40 μM,arrest of transition of cells from S-phase in G2/M-phase
same,level of S-phase remaining over 14 hours of incubation,"[2]; test sample, over 14 hours",65-70%
same,dependence of the level of apoptosis on the incubation time,HEK293 cell line,has not been observed
same,mean apoptosis values versus control samples,"HEK293 cell line; 24 hours, 40 μMol",no significant differences
"pAntp_p16(1): chimeric peptide, p16INK4a fragment at C-terminus, pAntp at N-terminus (SEQ ID NO: 10), solid phase synthesis (RQIKIWFQNRRMKWKKDAAREGFLDTLVVLHRAGAR; pAntp_p16(1), chimeric peptide; listed as Homo Sapiens)",changes of the cell cycle phases,[3],fails to induce the expected cytostatic effect
same,anti-proliferative effect on cells,[3]; summary of HEK293 and A549 experiments,does not have an anti-proliferative effect
same,effect on the level of apoptosis,[4],markedly increases
"pAntp_zam: control peptide with p16INK4a sequence (amino acids 82-102) with substitution of tyrosine by alanine at position 92 (RQIKIWFQNRRMKWKKDAAREGFLDALVVLHRAGAR; pAntp_zam, chimeric peptide; listed as Homo Sapiens) [reference compound]",changes of the cell cycle phases,[3],do not differ from the control
same,effect on the level of apoptosis,[4],not affected
